Laboratory results reported in patent publication US10765616B2, “Oral formulation of polyglucosamine derivatives in combination with a non-fermentable sugar” (SYNEDGEN, INC., priority 2013, dated 2020).

What was measured:
[1] = tested on: S. mutans biofilms; assay: Comparative biofilm reduction study of oral rinses and active ingredients (MBEC pegs); type: cell-based, Streptococcus mutans; settings: 72 h S. mutans biofilms, treated 2 minutes twice (6-hour interval), vs water control
Protocol: Biofilms of S. mutans were grown on hydroxyapatite-coated pegs according to MBEC Assay™ methods for 72 hours, and then treated with the oral rinses or a water control. The corresponding active ingredients were also evaluated. The biofilms were exposed for 2-minutes, twice in a 6-hour interval to evaluate biofilm removal. Following treatment, biofilms were rinsed, fixed, and stained with 0.4% Crystal Violet, and remaining biofilm was quantitated via CFU or OD595 (Beenken and Smeltzer, 2003). Biofilms were analyzed in triplicate in at least 3 independent assays. Ratios were averaged from all assays and the percent biofilm reduced and standard error compared to water control is shown.

[2] = tested on: S. mutans biofilms; assay: MBEC peg biofilm biomass reduction assay of active ingredients (twice daily, OD595); type: cell-based, Streptococcus mutans; settings: 2 minutes, 8-hour interval, 32 μg/mL PAAG, 1.5% hydrogen peroxide, alcohol, lactoferrin, chlorhexidine
Protocol: The S. mutans biofilms were grown according to MBEC™ for High-throughput Screening methods (Innovotech) on a hydroxyapatite-coated peg lid placed in trough containing BHI media supplemented with 1% sucrose rocking for 72 hours. The pegs were treated twice daily with PAAG (30% functionalized, 86 kD) active ingredients (FIG. 9) at 8-hour intervals for 2-minutes. The biofilms were rinsed in PBS, and the pegs were removed and placed into 200 μl 95% ethanol each for 2 minutes to fix the biofilms. The MBEC-HTP biofilms were stained with 150 μl of 3% Crystal Violet dye each for 2 minutes, and rinsed five times with PBS. It was noted that chlorhexidine appears to “fix” the biofilm to the pegs. The bacteria may or may not be viable because OD measured biofilm biomass, not viable CFUs. The stained and rinsed MBEC-HTP biofilms were then placed in 150 μL ethanol for 1-minute to remove the dye/biofilm. Then 100 μL of the ethanol and dyed biofilm suspension was placed into a 96-well plate and the OD595 was measured to quantify the remaining stained biofilm biomass.

[3] = tested on: A431 epithelial cells
Protocol: Human epithelial cell monolayers of A431 (ATCC CRL-1555) were seeded in tissue culture treated 96-well plates at a density of 2×10^4 cells/well in DMEM media supplemented with 10% FBS, 1% Penicillin-Streptomycin, and 1% Amphotericin B. Seeded cells were incubated at 37° C. with 5% CO2 for 48 hours. The media was removed and replaced with serum-free, antimicrobial-free media and rinsed one time for 30 seconds with PAAG Oral Formulation H, other oral products (Biotene, Corsodyl, Peroxyl, or Listerine), 32 μg/mL PAAG (30% functionalized, 86 kDa) and other active ingredients (0.029% lactoferrin, 0.2% chlorhexidine gluconate, 1.5% hydrogen peroxide, or 20% alcohol). Epithelial cell viability was determined by ATPLite Luminescence ATP Detection Assay System (PerkinElmer). Testing was done in duplicate.
Epithelial cell viability was compared between PAAG and other oral active ingredients and oral rinse products. Human epithelial cell monolayers were rinsed once for 30 seconds with each treatment. Following treatment, the epithelial cells were evaluated with ATP LITE Luminecence assay that measured viability via ATP. The data was normalized to untreated cells to compare percent survival (FIG. 4). […] The cells were rinsed once with PAAG Oral Formulation H, other oral rinse products (Biotene, Corsodyl, Peroxyl, or Listerine), oral products active ingredients (0.0032% PAAG, 0.029% lactoferrin (LF), 0.2% chlorhexidine (CHG), 1.5% hydrogen peroxide, or 20% alcohol). PAAG Oral Formulation H contains sorbitol (17.5%), glycerin (10%), xylitol (2.5%), polysorbate 20 (1.5%), peppermint oil (0.2%), benzoic acid (0.3%), sodium fluoride (0.5%), and PAAG (0.0032%). Epithelial cell viability was determined by ATPLite Luminescence ATP Detection Assay System (Perkin Elmer) and compared to media rinsed cells.

[4] = tested on: S. mutans; assay: PAAG and sorbitol combination bactericidal assay (viable plate counts); type: cell-based, Streptococcus mutans; settings: sorbitol 0-25% w/v, 30 minutes
Protocol: A range of sorbitol concentrations (0-25% w/v) was mixed with a range of PAAG concentrations (4-32 μg/mL, 86 kDa, 30% functionalized). S. mutans was exposed to each for 30 minutes before being neutralized with D/E neutralization broth, then diluted and plated for measurement of viable plate counts (CFU).

[5] = active ingredients at the concentration printed in the row or sentence

Row | Molecule | Percent (%) Biomass Reduced [1, 5] | reduction in S. mutans biofilm biomass compared to water control [2] | epithelial cell viability [3] | other results
1 | CCO [Alcohol, alcohol] | 39.9 ± 3.9% | significant reduction | – | Percent (%) Biomass Reduced ([1]; active ingredients at the concentration printed in the row or sentence, listed as alcohol): 39.9±3.9%
2 | [H]/N=C(\N/C(=N/[H])NCCCCCCNC(=N)NC(=N)Nc1ccc(Cl)cc1)Nc1ccc(Cl)cc1 [Chlorhexidine, chlorhexidine gluconate] | 17.1 ± 4.5% | did not significantly reduce | – | Percent (%) Biomass Reduced ([1]; active ingredients at the concentration printed in the row or sentence, listed as Chlorhexidine gluconate): 17.1±4.5%
3 | OO [hydrogen peroxide] | 36.9±3.8% | significant reduction | maintain epithelial cell viability | Percent (%) Biomass Reduced ([1]; active ingredients at the concentration given, listed as H2O2): 36.9 ± 3.8%
4 | OC[C@@H](O)[C@@H](O)[C@H](O)[C@@H](O)CO [sorbitol] | – | – | – | effect of sorbitol alone on bacterial viability [4]: did not affect bacterial viability
5 | poly (acetyl, arginyl) glucosamine [PAAG] | – | – | maintain epithelial cell viability | cytotoxicity to epithelial cells compared to other oral rinse products [3]: least cytotoxic
